Data as given in PMC7915588, “Polyphyllin D Shows Anticancer Effect through a Selective Inhibition of Src Homology Region 2-Containing Protein Tyrosine Phosphatase-2 (SHP2)” (Molecules, 2021).

Key:
[1] = target: T1, PTPN22 (LYP) (Homo sapiens, UniProt Q9Y2R2); assay: biochemical; design: Fluorogenic phosphatase assay, DiFMUP hydrolysis by recombinant PTPs, initial velocity, Ex/Em 355/460 nm; conditions: read-out: Inhibition by 20 µM polyphyllin D (%)
T1 construct: 1-326
T1 sequence (Q9Y2R2 1-807): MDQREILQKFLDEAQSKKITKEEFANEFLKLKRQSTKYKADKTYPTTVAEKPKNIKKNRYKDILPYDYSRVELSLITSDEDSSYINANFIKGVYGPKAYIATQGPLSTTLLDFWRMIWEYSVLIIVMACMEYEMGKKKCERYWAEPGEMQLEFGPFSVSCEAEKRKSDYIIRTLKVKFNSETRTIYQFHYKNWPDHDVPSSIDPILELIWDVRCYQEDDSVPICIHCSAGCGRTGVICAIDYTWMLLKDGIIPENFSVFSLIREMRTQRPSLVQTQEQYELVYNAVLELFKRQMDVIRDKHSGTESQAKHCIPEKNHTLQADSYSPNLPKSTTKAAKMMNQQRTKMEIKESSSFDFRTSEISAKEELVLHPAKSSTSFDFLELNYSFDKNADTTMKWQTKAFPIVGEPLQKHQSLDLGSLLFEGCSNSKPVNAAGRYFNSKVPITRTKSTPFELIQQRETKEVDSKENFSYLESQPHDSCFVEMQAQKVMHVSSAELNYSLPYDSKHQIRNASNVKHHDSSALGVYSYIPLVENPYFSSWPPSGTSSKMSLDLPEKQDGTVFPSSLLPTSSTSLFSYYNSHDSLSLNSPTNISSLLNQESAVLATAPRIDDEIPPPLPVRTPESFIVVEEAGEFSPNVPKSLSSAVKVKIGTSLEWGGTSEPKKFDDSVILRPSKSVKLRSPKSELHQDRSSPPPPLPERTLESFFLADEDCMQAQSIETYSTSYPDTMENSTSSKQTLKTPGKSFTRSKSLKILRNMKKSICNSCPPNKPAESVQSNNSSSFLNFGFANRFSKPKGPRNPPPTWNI
Procedure: (§1) Enzymatic reactions were initiated by the addition of SHP2 (final concentration of 10 nM) to a solution of each of the 658 phytochemical compounds (final concentration of 20 µM) in reaction buffer (20 mM bis-tris pH 6.0, 150 mM NaCl, 2.5 mM dithiothreitol, and 0.01% Triton X-100) containing DiFMUP (final concentration of 140 µM). Changes in the fluorescence intensities were measured continuously for 10 min at Ex/Em = 355/460 nm on a VictorTM X4 multilabel plate reader. Enzyme inhibition was estimated by comparing the reaction velocity in the presence of each compound with that in the absence of any compound. Inhibition of the other PTPs was measured in the same way. Next, we established a screening strategy using a DiFMUP substrate to identify a natural product that inhibits SHP2 activity. Initially, we screened 658 compounds at 20 µM using a 96-well plate system (Figure 2A). […] The selected compounds were tested at 20 µM for SHP2 inhibition, and 14 additional non-receptor-type PTPs (PTP1B, TCPTP, PTPH1, STEP, SHP1, HePTP, PTP-MEG2, PTP-PEST, PTP-BAS, PTP36, PTP-HSCF, PTPD1, LYP, and HD-PTP) were used to investigate the inhibition selectivity. The results were visualized using a heat map analysis by GraphPad Prism (Figure 2B and Table S2 in Supplementary Materials). To identify new SHP2 anticancer natural products, we first performed cloning to express SHP2 protein and then purified it. PTPN11 (Gene ID: 5781) encoding human SHP2 (amino acids sequences 1 to 526) with several extra amino acids were cloned into the MBP-pET 28a (+) vector, which was successfully used to overexpress PTPs with enhanced solubility in an Escherichia coli expression system. Information on amino acids for 15 non-receptor-type PTPs including SHP2 is summarized in Table S3 in the Supplementary Materials. SHP2 was overexpressed in RosettaTM (DE3) and purified using a metal affinity resin (Figure S1 in Supplementary Materials). […] The kcat, KM, and kcat/KM values were determined to be 270 min^−1, 70 μM, and 3.9 μM^−1min^−1, respectively, using the Lineweaver–Burk plot analysis (Table S1 in Supplementary Materials).

[2] = target: T2, PTPN21 (PTPD1) (Homo sapiens, UniProt Q16825); assay: biochemical; design: Fluorogenic phosphatase assay, DiFMUP hydrolysis by recombinant PTPs, initial velocity, Ex/Em 355/460 nm; conditions: read-out: Inhibition by 20 µM polyphyllin D (%)
T2 construct: 839-1174
T2 sequence (Q16825 1-1174): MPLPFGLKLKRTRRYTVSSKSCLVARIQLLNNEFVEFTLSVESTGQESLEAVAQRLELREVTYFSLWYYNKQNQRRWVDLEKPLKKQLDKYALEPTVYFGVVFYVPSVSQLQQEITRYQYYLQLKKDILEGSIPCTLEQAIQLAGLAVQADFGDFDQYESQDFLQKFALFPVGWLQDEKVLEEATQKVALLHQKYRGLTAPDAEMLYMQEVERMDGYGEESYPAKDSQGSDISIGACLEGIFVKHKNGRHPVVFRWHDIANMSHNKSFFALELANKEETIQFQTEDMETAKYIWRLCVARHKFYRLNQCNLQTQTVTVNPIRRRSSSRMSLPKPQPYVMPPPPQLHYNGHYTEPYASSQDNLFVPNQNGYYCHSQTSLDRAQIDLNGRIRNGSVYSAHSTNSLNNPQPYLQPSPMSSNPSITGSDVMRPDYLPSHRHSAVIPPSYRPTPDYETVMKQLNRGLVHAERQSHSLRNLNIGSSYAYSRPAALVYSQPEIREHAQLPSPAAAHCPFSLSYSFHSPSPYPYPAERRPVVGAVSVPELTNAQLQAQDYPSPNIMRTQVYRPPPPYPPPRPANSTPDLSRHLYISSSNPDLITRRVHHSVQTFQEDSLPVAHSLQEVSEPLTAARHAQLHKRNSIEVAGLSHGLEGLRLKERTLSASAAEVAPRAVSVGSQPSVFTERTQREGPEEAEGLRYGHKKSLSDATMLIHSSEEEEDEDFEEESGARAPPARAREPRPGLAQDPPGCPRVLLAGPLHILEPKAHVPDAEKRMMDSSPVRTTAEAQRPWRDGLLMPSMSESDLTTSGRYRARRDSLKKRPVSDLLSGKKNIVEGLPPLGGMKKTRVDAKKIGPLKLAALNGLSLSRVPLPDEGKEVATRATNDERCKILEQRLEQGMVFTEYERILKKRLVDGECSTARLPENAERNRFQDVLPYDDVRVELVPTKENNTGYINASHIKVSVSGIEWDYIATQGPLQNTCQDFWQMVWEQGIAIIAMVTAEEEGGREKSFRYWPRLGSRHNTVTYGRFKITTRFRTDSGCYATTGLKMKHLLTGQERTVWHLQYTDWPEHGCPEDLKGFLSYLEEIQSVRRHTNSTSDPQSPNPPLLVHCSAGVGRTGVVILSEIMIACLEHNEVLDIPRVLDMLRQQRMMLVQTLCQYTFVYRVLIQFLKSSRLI
Procedure: as §1

C[C@@H]1CC[C@@]2(OC1)O[C@H]1C[C@H]3[C@@H]4CC=C5C[C@@H](O[C@@H]6O[C@H](CO)[C@@H](O[C@@H]7O[C@@H](CO)[C@H](O)[C@H]7O)[C@H](O)[C@H]6O[C@@H]6O[C@@H](C)[C@H](O)[C@@H](O)[C@H]6O)CC[C@]5(C)[C@H]4CC[C@]3(C)[C@H]1[C@@H]2C [polyphyllin D]
inhibition at 20 µM [1]: 0.1%
inhibition at 20 µM [2]: 20.5%
